Data reported in patent US10093670B2, “Azabenzimidazole derivative having AMPK-activating activity” (Shionogi & Co., Ltd., priority 2011, dated 2018).

Experiments:
[1] = target: T1, human AMPK α1β1γ1 enzyme (Homo sapiens, UniProt Q13131+Q9Y478); assay: Evaluation of AMPK activator, Test Example 1 (mobility-shift kinase assay, FL-Peptide 7); assay type: biochemical; settings: for EC150 (compound concentration showing 150% relative to the control (100%)): human AMPK α1β1γ1, 25° C., 2 hours, 0.2 mM ATP final; for Emax: human AMPK α1β1γ1, relative to control (100%), read-out: Emax (maximum rate of increase in activity within the measurement range)
T1 construct: purchased Carna Biosciences, Inc
T1 sequence (Q13131 10-559 limits assumed): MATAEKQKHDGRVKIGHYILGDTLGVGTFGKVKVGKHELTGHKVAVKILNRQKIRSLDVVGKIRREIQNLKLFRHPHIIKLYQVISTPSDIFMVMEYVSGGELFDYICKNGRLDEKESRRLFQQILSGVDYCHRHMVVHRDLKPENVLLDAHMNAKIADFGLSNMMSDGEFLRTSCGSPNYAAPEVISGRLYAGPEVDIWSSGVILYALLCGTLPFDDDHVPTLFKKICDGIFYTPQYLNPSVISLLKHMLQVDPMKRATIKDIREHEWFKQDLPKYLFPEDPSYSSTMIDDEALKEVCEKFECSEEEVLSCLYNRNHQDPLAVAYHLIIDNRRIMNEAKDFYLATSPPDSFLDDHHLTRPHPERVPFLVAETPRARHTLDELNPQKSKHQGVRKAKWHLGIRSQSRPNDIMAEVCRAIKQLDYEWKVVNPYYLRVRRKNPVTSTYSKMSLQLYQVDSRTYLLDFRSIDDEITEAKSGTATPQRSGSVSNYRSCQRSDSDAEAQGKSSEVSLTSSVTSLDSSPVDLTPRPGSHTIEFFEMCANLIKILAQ
T1 sequence (Q9Y478 whole entry): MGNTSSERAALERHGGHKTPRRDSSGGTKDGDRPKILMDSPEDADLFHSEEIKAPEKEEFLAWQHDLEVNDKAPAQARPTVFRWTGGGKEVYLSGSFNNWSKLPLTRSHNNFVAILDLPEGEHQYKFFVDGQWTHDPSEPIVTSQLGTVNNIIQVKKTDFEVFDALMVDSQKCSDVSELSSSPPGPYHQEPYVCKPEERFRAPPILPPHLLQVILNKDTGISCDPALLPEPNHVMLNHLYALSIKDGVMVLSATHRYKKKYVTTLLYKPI
T1 sequence (P54619 whole entry partner): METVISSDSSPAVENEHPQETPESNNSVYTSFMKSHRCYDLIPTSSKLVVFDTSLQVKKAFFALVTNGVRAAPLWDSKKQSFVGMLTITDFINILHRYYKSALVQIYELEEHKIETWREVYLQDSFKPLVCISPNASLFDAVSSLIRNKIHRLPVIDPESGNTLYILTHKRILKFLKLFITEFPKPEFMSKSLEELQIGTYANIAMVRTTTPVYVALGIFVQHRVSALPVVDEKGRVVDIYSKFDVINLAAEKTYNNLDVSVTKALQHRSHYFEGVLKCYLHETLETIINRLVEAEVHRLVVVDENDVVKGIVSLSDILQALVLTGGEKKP
Method: The obtained liquid was left to stand for 10 minutes.
The obtained liquid was allowed to react at 25° C. for 2 hours, and 10 μl of 20 mM EDTA was then added thereto to stop the reaction.
(§1) To detect phosphorylated fluorescent substrates, the reaction liquid was applied to a measuring device, LabChip EZ Reader II manufactured by Caliper Life Science, Inc., for detecting fluorescence by using differences in mobility due to differences in charge. The setting conditions for the device were pressure, −1.5 PSI; upstream voltage, −2250 V; downstream voltage, −400 V; post sample buffer sip time, 40 seconds; final delay, 120 seconds; and peak order, Product First.
(§2) A conversion rate was calculated from the peak heights of the resulting substrate and product. The conversion rate when not containing a compound was used as a control, and a concentration dependent curve was made by plotting the rate of increase in activity to the control at each concentration of a compound.

[2] = target: T2, Human AMPK α2β2γ1 (Homo sapiens, UniProt O43741+P54646); assay: Evaluation of AMPK activator, Test Example 2 (CaMKK2-phosphorylated enzyme, mobility-shift kinase assay); assay type: biochemical; settings: for EC150 (compound concentration showing 150% relative to the control (100%)): human AMPK α2β2γ1 phosphorylated by CaMKK2, 25° C., 2 hours; for Emax: human AMPK α2β2γ1 phosphorylated by CaMKK2, relative to control (100%), read-out: Emax (maximum rate of increase in activity within the measurement range)
T2 construct: The full length cDNAs of human AMPK β2 (NM_005399.3) and human AMPK α2 (NM_006252.3) were inserted; the full length cDNA of human AMPK γ1 (NM_002733.3) had been inserted into pET28b(+); 6xHis (N); made in house; host or cells: Escherichia coli BL21 CodonPlus (DE3)-RIL (AMPK); BL21 Star (DE3) (CaMKKβ)
T2 sequence (P54646 whole entry): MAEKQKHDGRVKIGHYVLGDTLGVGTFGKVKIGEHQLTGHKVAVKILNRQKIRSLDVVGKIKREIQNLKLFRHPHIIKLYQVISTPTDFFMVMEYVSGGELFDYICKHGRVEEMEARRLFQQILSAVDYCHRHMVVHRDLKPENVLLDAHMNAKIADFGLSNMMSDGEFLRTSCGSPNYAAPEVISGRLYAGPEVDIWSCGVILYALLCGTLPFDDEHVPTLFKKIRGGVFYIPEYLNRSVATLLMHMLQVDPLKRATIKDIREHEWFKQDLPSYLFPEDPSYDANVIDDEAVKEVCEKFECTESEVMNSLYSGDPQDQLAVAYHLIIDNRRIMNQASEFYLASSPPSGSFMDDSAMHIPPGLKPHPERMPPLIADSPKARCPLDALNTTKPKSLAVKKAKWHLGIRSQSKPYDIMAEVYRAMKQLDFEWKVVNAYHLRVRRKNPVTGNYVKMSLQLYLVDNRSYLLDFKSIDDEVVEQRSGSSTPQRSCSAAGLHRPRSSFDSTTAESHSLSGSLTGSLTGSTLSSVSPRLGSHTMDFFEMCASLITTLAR
T2 sequence (O43741 whole entry): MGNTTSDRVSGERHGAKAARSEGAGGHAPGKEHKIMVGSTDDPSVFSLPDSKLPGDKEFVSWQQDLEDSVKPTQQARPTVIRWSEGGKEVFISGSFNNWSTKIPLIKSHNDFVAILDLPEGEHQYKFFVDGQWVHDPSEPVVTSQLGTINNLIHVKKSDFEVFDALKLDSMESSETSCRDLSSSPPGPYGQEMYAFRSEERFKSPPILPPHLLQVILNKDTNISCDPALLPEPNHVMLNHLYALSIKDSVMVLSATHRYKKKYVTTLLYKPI
T2 sequence (P54619 whole entry partner): as the sequence (P54619 whole entry partner) above
Method: The full length cDNAs of human AMPK β2 (NM_005399.3) and human AMPK α2 (NM_006252.3) were inserted into the MCS1 and MCS2 of the pETDuet-1 vector to prepare a human AMPK β2 and human AMPK α2 (6× His tag at the 5′ terminus) expressing plasmid. The plasmid was contransfected with an expression plasmid, in which the full length cDNA of human AMPK γ1 (NM_002733.3) had been inserted into pET28b(+), into BL21 CodonPlus (DE3)-RIL to obtain an expression strain. The expression strain was cultured in TB medium, followed by induction with 0.5 mM IPTG, and cultured at 25° C. for 3 hours and then harvested. After ultrasonication, supernatant was collected and applied to Histrap FF column (GE) and RESOUECE Q column (GE) to prepare 12.5 mg of purified sample containing three types of subunit from 1.8 L of broth.
An expression vector, in which the full length cDNA of human CAMKK β (NM_172226.1) had been inserted into pGEX-6P-3, was transfected into BL21 Star (DE3). The expression strain was cultured in TB medium, followed by induction with 0.5 mM IPTG, and cultured at 25° C. for 3 hours and then harvested. After ultrasonication, supernatant was collected and applied to GSTrap FF column (GE) to prepare 14 mg of GST-fused CAMKK β from 720 ml of broth.
Evaluation Method of an Activator for AMP-activated Protein Kinase (AMPK) (Test Example 2)
Thus, phosphorylation treatment was carried out as pretreatment.
Human AMPK α2β2γ1 in an amount to give a conversion rate of approximately 10% by reaction for 2 hours, and CaMKK2 in an amount capable of sufficiently imparting activity to AMPK for one hour were mixed in a buffer solution consisting of a 50 mM HEPES-NaOH buffer solution (pH 7.0), 100 mM NaCl, 5 mM magnesium chloride, 0.1% bovine serum albumin, 0.2 mM sodium orthovanadate(V), 1 mM ethylene glycol-bis(2-aminoethyl ether)-N,N,N′,N′-tetraacetic acid (EGTA), 5 mM disodium β-glycerophosphate, 1 mM dithiothreitol and 0.2 mM ATP, and the obtained liquid was left to stand at 25° C. for 1 to 1.5 hours to sufficiently phosphorylate AMPK.
After that, to the enzyme liquid, which had been subjected to phosphorylation treatment, a compound dissolved in DMSO was added so as to have a 1% DMSO concentration. The obtained liquid was left to stand for 10 minutes.
To the liquid, a substrate solution consisting of a 50 mM HEPES-NaOH buffer solution (pH 7.0), 100 mM NaCl, 10 mM magnesium chloride, 0.1% bovine serum albumin, 0.2 mM sodium orthovanadate(V), 1 mM ethylene glycol-bis(2-aminoethyl ether)-N,N,N′,N′-tetraacetic acid (EGTA), 5 mM disodium β-glycerophosphate, 2 mM dithiothreitol, 0.4 mM ATP and 3 μM FL-Peptide 7 (manufactured by Caliper Life Sciences, Inc.) was added in equal amount (10 μl in total). The obtained liquid was allowed to react at 25° C. for 2 hours, and 10 μl of 20 mM EDTA was then added thereto to stop the reaction.
as §1, §2

SMILES	EC150 (compound concentration showing 150% relative to the control (100%)) [1] [nM]	Emax [1] [%]	EC150 (compound concentration showing 150% relative to the control (100%)) [2] [nM]	Emax [2] [%]
CC(C)(C(=O)O)[C@]1(F)CC[C@@H](Oc2nc3nc(-c4ccc(N5CCOCC5)cc4)c(Cl)cc3[nH]2)CC1 [Compound I-3-99]	3.7	310	15	261
NC(=O)c1ccc(-c2ccc(-c3nc4nc(O[C@H]5CC[C@H](C(=O)O)CC5)[nH]c4cc3Cl)cc2)cc1 [Compound I-3-120]	28	216	7	262
